Where no end group is shown, it is not given here.
How the values were obtained:
[1] = test system: HeLa S3 cells (endogenous KDEL receptor); assay: ER secretion assay (western blot of cells and media); format: cell-based, human; conditions: for secretion of endogenous luminal ER chaperones (BiP, PDI, ERP44) caused by the exogenous signal variant: western blot, n = 3, compared with signals having leucine at −1, result in words; for ER retention of the mScarlet reporter (secretion to media): 24 hr expression, western blot of cell extracts and medium, n = 3, result in words
From the text: To further explore if disturbing the water will disrupt the binding, the terminal leucine at the −1 position in the HDEL ligand was alchemically changed to phenylalanine or alanine (Figures 3E and 3F). Phenylalanine also stabilized the two waters in the binding pocket, resulting in a high unbinding free energy. Due to its small size, alanine, however, was unable to stabilize the water, resulting in lower binding free energy. To validate these calculations, we tested the impact of signal variants at the −1 position on both retrieval of the endogenous KDELR from the Golgi to the ER and ER retention of a reporter protein carrying the signal variant in a cellular assay. To measure the role of the −1 position on retrieval of the endogenous KDELR to the ER, cells were transfected with mScarlet-reporters carrying −1 alanine (H/KDEA) or phenylalanine (H/KDEF) variants of either the HDEL or KDEL retrieval signals (Figure 4A). […] Finally, the effect of −1 variant signals on KDELR retrieval of endogenous ER chaperones was also tested. […] This effect was reduced for HDEF or KDEF signals and lost entirely for HDEA or KDEA signals (Figures 4B and 4D).
Figure 4 The terminal amino acid modulates recognition of the ERS by the KDEL receptor (A) Endogenous KDEL receptor redistribution was measured in COS-7 cells in the absence (-ligand) or presence of H/KDEL/F/A (mScarlet-xDEx^sec). TGN46 was used as a Golgi marker. The scale bar is 10 μm. The mean differences for H/KDEL/F/A comparisons against the shared no-ligand control are shown as Cummings estimation plots. The individual data points for the fraction of KDEL receptor fluorescence in the Golgi are plotted on the upper axes. On the lower axes, mean differences are plotted as bootstrap sampling distributions. Each mean difference is depicted as a dot. Each 95% confidence interval is indicated by the ends of the vertical error bars. (B) Cells and media collected from HeLa S3 cells expressing the xDEx variants (mScarlet-K/HDEx^sec) indicated in the figure were western blotted for resident ER chaperons and KDEL receptor.*unspecific bands (C) K/HDEx secretion to media bar graph showing mean ± SEM (n = 3). (D) Bar graph of endogenous ER chaperones secreted after challenged with different retrieval signals as measured by western blot showing mean ± SEM (n = 3).
ER chaperone secretion assays were performed as described in Gerondopoulos et al.[11] Briefly HeLa S3 cells were transfected with mScarlet-ligand (+xDEL ligand) or pcDNA3.1 (− ligand), and allowed to express the respective proteins for 24 hr. The media were TCA precipitated and both cell and media were resuspended and boiled in SDS-PAGE sample buffer. All samples were analysed by Western blotting and signals on films were measured by densitometry in FIJI.[33] Data were plotted as bar graphs in GraphPad Prism.

[2] = test system: human KDELR1-GFP D9N in COS-7 cells; assay: Retrieval assay (KDEL receptor redistribution Golgi to ER); format: cell-based; conditions: KDELR-GFP D9N vs WT, mScarlet ligand
From the text: Figure 6 Effect of the water on proton transfer between Asp9 and His12 (A) In the bound state, a proton could be transferred from the histidine (His12/H12) to the aspartate (Asp9/D9) through the crystallographic water. A similar proton transfer can also be made in the apo state. (B) In the apo and bound state, the free energy barrier for the proton transfer (the center of excess charge) from the histidine to aspartate is similar. A larger energy barrier is observed for the proton transfer from aspartate back to the histidine in the bound state. (C) WT, D9A and D9N-mutant KDEL receptors redistribution in COS-7 cells in the absence (-ligand) or presence of K/R/HDEL (mScarlet-xDEL^sec) ligand. TGN46 was used as a Golgi marker. […] (D) The fraction of wild-type and H12A, D9A, and D9N-mutant KDEL receptors localized to the Golgi was measured before (no ligand) and after challenge with different retrieval signals (K/R/HDEL) and is shown as Cummings estimation plots. […]
Retrieval assays were performed as described in Gerondopoulos et al.[11] […] The signal for the KDEL receptor (integrated pixel intensity) was measured in individual cells using FIJI[33] for the Golgi region defined by the TGN46 Golgi marker and for the entire cell in the presence (+) and absence (-) of ligand. The fraction of KDEL receptor in the Golgi apparatus was calculated by dividing the Golgi signal by the total cell signal. […]

[3] = molecular target: chicken KDELR; conditions: cited from earlier work
[4] = molecular target: TAEHDEL peptide; conditions: cited from earlier work
[5] = molecular target: TAEKDEL peptide; conditions: cited from earlier work
[6] = molecular target: T1, Gallus gallus (Gg) KDELR2 (Gallus gallus, UniProt Q5ZKX9); assay: Peptide binding assay, competition of 3H-labelled peptide (filter binding, scintillation counting); conditions: competition of 3H-labelled peptide at 20 nM, 20 mM MES pH 5.4, 40 mM sodium chloride, 0.01% DDM 0.0005% CHS, 20°C, 10 min, mean, n = 3, read-out: affinity (mean IC50, Figure S3)
T1 construct: GFP-His fusion (C); made in house; host or cells: Saccharomyces cerevisiae strain BY5460
T1 sequence (Q5ZKX9 1-212): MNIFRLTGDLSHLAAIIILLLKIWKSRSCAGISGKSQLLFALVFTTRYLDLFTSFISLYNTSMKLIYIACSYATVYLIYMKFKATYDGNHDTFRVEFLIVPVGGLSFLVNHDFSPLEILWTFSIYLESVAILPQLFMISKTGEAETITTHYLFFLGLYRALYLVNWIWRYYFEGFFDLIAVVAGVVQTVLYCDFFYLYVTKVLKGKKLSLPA
Experimental: Binding assays were performed as detailed in Bräuer, P. et al.[19] WT or mutant protein (5 μL) in 20 mM MES pH 5.4, 40 mM Sodium Chloride, 0.01% DDM 0.0005% CHS was incubated with 5 μL of 3H-TAEHDEL (Cambridge Research Biochemicals, UK) at 20 nM at 20°C for 10 min. Using a vacuum manifold, the reaction was then filtered through a 0.22 μm mixed cellulose ester filters (Millipore, USA). Filters were washed with 2 x 0.5 mL cold buffer. The amount of peptide remaining bound was measured using scintillation counting in Ultima Gold (Perkin Elmer). Experiments were performed at least three times, independently, to generate an overall mean and standard deviation (s.d).
Figure S3. Affinity of different cargo signals, related to Figure 5. Mean IC50 values calculated for the TAEHDEF and TAEHDEL peptides competing […] peptide. Error bars are standard deviation of the mean (n = 3).
(1 picture or pasted object on this page, not shown here)

[7] = molecular target: T2, human KDELR1-GFP D9N (human) (UniProt P24390)
T2 sequence: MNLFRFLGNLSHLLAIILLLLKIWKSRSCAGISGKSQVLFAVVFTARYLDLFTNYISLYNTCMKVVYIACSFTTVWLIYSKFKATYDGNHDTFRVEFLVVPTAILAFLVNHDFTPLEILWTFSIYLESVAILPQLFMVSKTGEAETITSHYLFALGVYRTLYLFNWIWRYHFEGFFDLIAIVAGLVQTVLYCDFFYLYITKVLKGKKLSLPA

Substance | secretion of endogenous luminal ER chaperones (BiP, PDI, ERP44) caused by the exogenous signal variant [1] | Kd [3] [nM] | further results
HDEA [HDEL ligand with terminal leucine changed to alanine (simulation)] | lost entirely |  | 
HDEF [HDEL ligand with terminal leucine changed to phenylalanine (simulation)] | reduced |  | ER retention of the mScarlet reporter (secretion to media) [1]: retained more efficiently than the alanine variants but less efficiently than when leucine is present
HDEL |  | 240 | retrieval of cargo by the Asp9Asn receptor variant relative to WT [2]: ~ 80 % WT levels
KDEA [KDEL ligand with alanine at the −1 position (simulation)] | lost entirely |  | 
KDEF^sec: hGHss-mScarlet-H. sapiens BiP639-654 L654F secreted reporter (GPPPTGEEDTAEKDEF; not fully specified (N-terminus)) | reduced |  | ER retention of the mScarlet reporter (secretion to media) [1]: retained more efficiently than the alanine variants but less efficiently than when leucine is present
KDEL receptor (from UniProt Q5ZKX9) |  |  | Kd [4]: 240 nM; Kd [5]: 1940 nM
Lys-Asp-Glu-Leu [KDEL] |  | 1940 | 
RDEL [RDEL variant of the retrieval signal peptide] |  | 2710 | 
TAEHDEF [TAEHDEF] |  |  | IC50 [6]: 23 µM
TAEHDEL [TAEHDEL, reference compound] |  |  | IC50 [6]: 18 µM
TAEKDEL [ER-retrieval signal peptide with canonical KDEL, Cambridge peptides] |  | 1940 | 
hGHss-mScarlet-H. sapiens BiP639-654 K651H (HDEL^SEC) (from UniProt P11021 639-654) |  |  | ligand-induced redistribution of KDELR1-GFP from the Golgi in COS-7 cells (cell retrieval assay), HDEL ligand [7]: 80 % WT levels

Reference: paper PMC7617889, “Molecular basis for pH sensing in the KDEL trafficking receptor” (Structure (London, England : 1993), 2024)
